Literature values, collected in US8614315B2, “Cefdinir and cefixime formulations and uses thereof” (priority 2010, dated 2013).

What was measured:
[1] = pH 3.2, room temperature
[2] = not given; remark: listed apart in the source

Row | solubility in ethanol and acetone (ethanol, acetone) | solubility in ether, ethyl acetate, hexane and water (ether, ethyl acetate, hexane, water) | solubility in methanol and propylene glycol (methanol, propylene glycol) | solubility in a solution with a pH value of 3.2 [1] | solubility in water, methanol, ethanol, acetone and many other organic solvents [2] | SMILES
1 | partially soluble | does not dissolve | freely soluble | 0.5 mg/mL | – | C=CC1=C(C(=O)O)N2C(=O)[C@@H](NC(=O)/C(=N\OCC(=O)O)c3csc(N)n3)[C@H]2SC1 [Cefixime, (6R,7R)-7-{[2-(2-amino-1,3-thiazol-4-yl)-2-(carboxymethyloxyimino)acetyl]amino}-3-ethenyl-8-oxo-5-thia-1-azabicyclo [4.2.0]oct-2-en-2-carboxylic acid]
2 | – | – | – | – | poor solubility | C=CC1=C(C(=O)O)N2C(=O)[C@@H](NC(=O)/C(=N\O)c3csc(N)n3)[C@H]2SC1 [Cefdinir, (6R,7R)-7-[[(2Z)-(2-amino-4-thiazolyl)(hydroxyimino)acetyl]amino]-3-ethenyl-8-oxo-5-thia-1-azabicyclo[4.2.0]oct-2-en-2-carboxylic acid]
